{"source": "paper PMC11335206", "about": "“Exploring oak processionary caterpillar induced lepidopterism (part 2): ex vivo bio-assays unmask the role of TRPV1” (Cellular and Molecular Life Sciences: CMLS, 2024)", "key": {"[1]": {"system": "hTRPA1", "assay": "TEVC electrophysiology on TRPA1 expressing oocytes", "type": "cell-based, human", "conditions": "1 µM A967079; 50 µM mustard oil; holding −90 mV; n ≥ 3", "experimental": "(§2) We used Xenopus laevis oocytes as a heterologous expression system in electrophysiological experiments to express ligand-gated and voltage-gated ion channels. […] Plasmids corresponding to each channel or receptor underwent linearization using specific restriction enzymes and subsequent transcription with the T3, T7, or SP6 mMESSAGE mMACHINE transcription kit (Ambion, USA). Depending on the channel type, defolliculated oocytes were injected with 10–50 nL of cRNA at a concentration of 1 ng/nL using a micro-injector (Nanoject II; Drummond Scientific Company, USA). Electrophysiological experiments were conducted following cRNA injection, with an incubation period of 1–5 days at 16 °C in ND96 buffer.\n(§3) A two-electrode voltage clamp (TEVC) system utilizing a GeneClamp 500 amplifier (Molecular Devices, Downingtown, PA, USA) was under the control of a pClamp data acquisition system (Axon Instruments, USA), and pClamp Clampex 10.4 software (Axon Instruments®, USA). This setup was employed to measure currents across the cell membrane. The whole-cell currents from the oocytes were recorded at room temperature (18–22 °C). […]\nTRPV1 and TRPA1 currents were continuously monitored in a perfusing ND96 solution, following a protocol at −90 mV for 400 s. […]"}, "[2]": {"system": "individuals with atopic dermatitis", "conditions": "topical, phase III, ref [36]; cited from earlier work", "description": "The results are consistent with the discoveries presented by Yao et al. (2019) regarding Latoia consocia, a caterpillar indigenous to South-West China. […] Despite substantial investments in the quest for TRPV1 antagonists, yet no antagonist is available on the market. Presently, a ..."}, "[3]": {"system": "hH4R", "assay": "TEVC on H4R-GIRK1/GIRK2-RGS4 oocytes", "type": "cell-based, human", "experimental": "as §2\nA two-electrode voltage clamp (TEVC) system utilizing a GeneClamp 500 amplifier (Molecular Devices, Downingtown, PA, USA) was under the control of a pClamp data acquisition system (Axon Instruments, USA), and pClamp Clampex 10.4 software (Axon Instruments®, USA). This setup was employed to measure currents across the cell membrane. The whole-cell currents from the oocytes were recorded at room temperature (18–22 °C). Two micro-electrodes, comprising voltage and current electrodes, were crafted from borosilicate glass capillaries (1.14 mm outside diameter, 0.7 mm inside diameter), pulled using a microelectrode puller, PUL-1 (World Precision Instruments, USA). […]"}, "[4]": {"conditions": "ref [28], cited from earlier work"}, "[5]": {"molecular_target": "hTRPV1 (Homo sapiens, UniProt Q8NER1)", "sequence (Q8NER1 whole entry)": "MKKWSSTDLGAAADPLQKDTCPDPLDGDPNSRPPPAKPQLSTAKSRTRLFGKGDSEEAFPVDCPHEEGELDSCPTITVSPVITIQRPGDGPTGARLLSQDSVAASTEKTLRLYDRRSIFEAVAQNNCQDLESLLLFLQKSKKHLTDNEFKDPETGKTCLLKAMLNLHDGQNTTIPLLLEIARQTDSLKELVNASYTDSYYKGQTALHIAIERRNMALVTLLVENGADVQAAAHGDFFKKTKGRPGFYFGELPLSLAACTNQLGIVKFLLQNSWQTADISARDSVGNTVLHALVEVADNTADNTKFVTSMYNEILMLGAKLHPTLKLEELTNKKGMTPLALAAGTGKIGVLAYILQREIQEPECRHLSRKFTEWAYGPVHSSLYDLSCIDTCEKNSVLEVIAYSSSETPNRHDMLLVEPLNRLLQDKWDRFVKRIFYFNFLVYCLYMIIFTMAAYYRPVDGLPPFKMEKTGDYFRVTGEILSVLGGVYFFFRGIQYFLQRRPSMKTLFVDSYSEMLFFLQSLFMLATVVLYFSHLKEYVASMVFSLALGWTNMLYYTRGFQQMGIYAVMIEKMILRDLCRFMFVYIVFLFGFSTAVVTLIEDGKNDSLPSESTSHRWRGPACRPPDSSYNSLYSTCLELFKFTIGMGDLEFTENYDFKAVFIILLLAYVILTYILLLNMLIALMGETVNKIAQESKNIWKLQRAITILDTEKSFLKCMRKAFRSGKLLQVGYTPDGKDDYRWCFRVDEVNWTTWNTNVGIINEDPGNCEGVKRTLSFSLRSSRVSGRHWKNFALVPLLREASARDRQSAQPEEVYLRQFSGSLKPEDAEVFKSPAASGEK", "assay": "TEVC electrophysiology on TRPV1 expressing oocytes", "type": "cell-based", "description": "We used Xenopus laevis oocytes as a heterologous expression system in electrophysiological experiments to express ligand-gated and voltage-gated ion channels. Molecular biology techniques (subcloning, transformation, linearization and transcription) were used to make RNA encoding: (1) transient receptor potential channel (hTRPV1 and hTRPA1), (2) histamine receptors (hH1R and hH4R), (3) bradykinin receptor (hB2R), (4) nicotinic acetylcholine receptor (adult muscle type hα1β1δε nAChR and neuronal hα7 nAChR), (5) acid-sensing ion channel (rASIC1a), (6) voltage-gated sodium channels (rNav1.1, rNav1.2, rNav1.3, rNav1.4, mNav1.6 and hNav1.8) and their auxiliary subunits rβ1 and hβ1 and (7) potassium channels (hKv1.1, hKv1.2, hKv1.3, hKv1.4, hKv1.5, hKv1.6, hKv3.1, hKv10.1, mGIRK1, mGIRK2 and mIRK1). Plasmids corresponding to each channel or receptor underwent linearization using specific restriction enzymes and subsequent transcription with the T3, T7, or SP6 mMESSAGE mMACHINE transcription kit (Ambion, USA). Depending on the channel type, defolliculated oocytes were injected with 10–50 nL of cRNA at a concentration of 1 ng/nL using a micro-injector (Nanoject II; Drummond Scientific Company, USA). Electrophysiological experiments were conducted following cRNA injection, with an incubation period of 1–5 days at 16 °C in ND96 buffer."}, "[6]": {"system": "TRPV1", "set-up": "method as in earlier work", "conditions": "Latoia consocia; ref [35] Yao et al. (2019); cited from earlier work"}, "[7]": {"system": "hH1R", "type": "cell-based, human", "experimental": "as §2, §3\n(§4) The H1R and B2R couples with Gαq/11 proteins, initiating the release of Ca^2+ from the intracellular stores. This rise in intracellular Ca^2+ will activate the Ca^2+-activated Cl^− channels, serving as a sensitive readout."}, "[8]": {"system": "histamine-N-methyltransferase", "conditions": "ref [47]; cited from earlier work", "description": "(§1) Putrescine is a small aliphatic polyamine synthesized by ornithine decarboxylase (ODC) and found in the venom of other animals. Under physiological conditions, putrescine undergoes complete protonation. This property enables putrescine to interact with negatively charged macromolecules, such as DNA, RNA, ATP, phospholipids, or proteins. As a result, it plays a significant role in v ..."}, "[9]": {"system": "TRPV1", "conditions": "HEK293 cells, ref [44] Ahern et al. (2005), cited from earlier work", "description": "as §1"}, "[10]": {"system": "rat paw", "conditions": "10 µmol/paw, subcutaneous injection, ref [46]; cited from earlier work", "description": "as §1"}, "[11]": {"system": "hB2R", "assay": "TEVC on B2R expressing oocytes", "type": "cell-based, human", "conditions": "1 µM bradykinin; ramp −120 to +70 mV from −20 mV", "experimental": "as §2, §3, §4"}}, "note": "Positions of bridges follow the written chain, without caps; N, C: chain ends. No end group written: not given here."}
{"compound": "CCC(=N\\O)/C(C)=C/c1ccc(F)cc1", "note": "[A967079]", "values": [{"measurement": "block of mustard oil effect on TRPA1", "setting": "[1]", "result": "is blocked"}]}
{"compound": "CCCc1nc(C(F)(F)F)ccc1/C=C/C(=O)N[C@H](C)c1cc(F)c(NS(C)(=O)=O)c(F)c1", "note": "[Asivatrep]", "values": [{"measurement": "clinical efficacy", "setting": "[2]", "result": "encouraging results"}, {"measurement": "safety profile", "setting": "[2]", "result": "a favorable safety profile"}]}
{"compound": "CN1CCN(C(=O)c2cc3cc(Cl)ccc3[nH]2)CC1", "note": "[JNJ 7777120]", "values": [{"measurement": "block of histamine effect on H4R", "setting": "[3]", "result": "The effect of histamine (blue) was blocked"}]}
{"compound": "CC(c1cc2ccccc2s1)N(O)C(N)=O", "note": "(stereo not drawn) [Zileuton]", "values": [{"measurement": "suppression of pain and edema induced by secapin-2", "setting": "[4]; 5-lipoxygenase blocker, secapin-2 injection", "result": "suppress pain and edema responses"}]}
{"compound": "COc1cc(CNC(=O)CCCC/C=C/C(C)C)ccc1O", "note": "[capsaicin]", "values": [{"measurement": "TRPV1 current by agonist", "setting": "[5]", "result": "a current increase"}]}
{"compound": "Oc1cc2c(cc1O)CN(C(=S)NCCc1ccc(Cl)cc1)CCC2", "note": "[capsazepine]", "values": [{"measurement": "block of venom extract-induced TRPV1 current increase", "setting": "[5]; 10 µM capsazepine, 0.4 µg/µL extract + 1 µM capsaicin, holding −90 mV, n ≥ 3", "result": "the current increase by whole venom setae extract disappeared"}, {"measurement": "reduction of caterpillar-induced pain", "setting": "[6]", "result": "a notable reduction"}]}
{"compound": "NCCc1c[nH]cn1", "note": "[histamine]", "values": [{"measurement": "H1R current by agonist", "setting": "[7]", "result": "a current increase"}]}
{"compound": "COc1ccc2c(c1)c(CC(=O)O)c(C)n2C(=O)c1ccc(Cl)cc1", "note": "[indomethacin]", "values": [{"measurement": "reduction of secapin-2 edema formation and pain sensation", "setting": "[4]; nonspecific antagonist of cyclooxygenase", "result": "did not show any reducing effects on edema formation and pain sensation"}]}
{"compound": "NCCCCN", "note": "[putrescine]", "values": [{"measurement": "histamine-N-methyltransferase activity", "setting": "[8]", "result": "inhibiting histamine-N-methyltransferase activity"}, {"measurement": "TRPV1 activity, putrescine alone", "setting": "[9]; 5 mM putrescine alone", "result": "did not induce a detectable TRPV1 activity"}, {"measurement": "enhancement of capsaicin-evoked TRPV1 current", "setting": "[9]; 5 mM putrescine with 30 nM capsaicin", "result": "remarkably intensified the current evoked by 30 nM capsaicin"}, {"measurement": "duration of sustained edema", "setting": "[10]", "result": 6, "unit": "h"}, {"measurement": "mechanical allodynia", "setting": "[10]", "result": "induction of mechanical allodynia"}]}
{"compound": "DHETDLDDSNVPRIGRHIIDAPKRGCPEGYRKDHQGKCREVL (disulfide 26-38) [TPTX1-Tp1]", "values": [{"measurement": "effect on TRPV1, peptide alone", "setting": "[5]; 1 µM TPTX1-Tp1 (Fig. 4B), no capsaicin, ramp −120 to +70 mV from −20 mV, ND96", "result": "does not have an effect on TRPV1 injected oocytes"}, {"measurement": "TRPV1 current with capsaicin", "setting": "[5]; TPTX1-Tp1 combined with 0.1 µM capsaicin, ramp −120 to +70 mV from −20 mV, ND96", "result": "induces an increase in the current"}]}
{"compound": "bradykinin", "values": [{"measurement": "B2R conductance by agonist", "setting": "[11]", "result": "evoked a change of conductance"}]}
